Measurements reported in PMC6891598, “Application of N-Dodecyl L-Peptide to Enhance Serum Stability while Maintaining Inhibitory Effects on Myometrial Contractions Ex Vivo” (Molecules, 2019).
“Also recorded” adds a separate entry of the source. Where a name gives a salt, the structure may show the parent alone. Residues, ends and D or L forms follow the SMILES beside them.

Key:
[1] = tested on: murine myometrial tissue (PGF2α-induced contractions; FP); assay: ex vivo mouse myometrial tissue contraction assay (PGF2α-induced); set-up: species or system mouse (CD-1); settings: post-partum CD-1 mouse myometrial strips, Krebs buffer pH 7.4, 37 °C, 20 min pretreatment with peptide at two concentrations, then PGF2α; 4–6 experiments per group, means ± SEM, t-test, p < 0.05 vs vehicle
Experimental: All the peptides were initially tested in an ex vivo mouse myometrial tissue contraction assay. Contractile activity was measured on tissue that was harvested post-partum and treated with prostaglandin F2α (PGFα) alone (control) or in the presence of peptides L-4b-4g, L-7, and L-8. […] Mean tension induced by KCl (as a positive control) was not affected by L-4d.
Pregnant CD-1 mice (16-17 days gestation, term 19 days) were obtained from Charles River Inc. and used according to a protocol of the Animal Care Committee of Hôpital Sainte-Justine according to the principles of the Guide for the Care and Use of Experimental Animals of the Canadian Council on Animal Care. The animals were maintained on standard laboratory chow under a 12:12 light:dark cycle and allowed free access to chow and water.
The uterus from the CD-1 mouse was obtained from the animal immediately after term delivery under anesthesia (2.5% isoflurane). Briefly, a midline abdominal incision was made and the uterine horns were rapidly excised, cleansed carefully of the surrounding connective tissues, and removed. Longitudinal myometrial strips (2 to 3 mm wide and 1 cm long) were dissected free from the uterus and mounted isometrically in organ tissue baths. The initial tension was set at 2 g. The tissue baths contained 20 mL of Krebs buffer of the following composition (in mM): 118 NaCl, 4.7 KCl, 2.5 CaCl2, 0.9 MgSO4, 1 KH2PO4, 11.1 glucose, and 23 NaHCO3 (pH 7.4). The buffer was equilibrated with 95% oxygen/5% carbon dioxide at 37 °C. Isometric tension was measured by a force transducer and recorded by a BIOPAC data acquisition system (BIOPAC MP150, Montreal, PQ, Canada). Experiments were begun after 1 h equilibration. Mean tension of spontaneous contractions was measured using a BIOPAC digital polygraph system (AcqKnowledge); the same parameters were also determined after addition of PGF2α in the presence or the absence of a 20 min-pretreatment with different FP inhibitors. At the start of each experiment, mean tension of spontaneous myometrial contractions was considered as a reference response. Changes in mean tension (g) were expressed as percentages of the initial reference response (% of baseline).
At the start of each experiments, mean tension of spontaneous myometrial contractions was considered as a reference response. Increase in mean tension (%) was expressed as percentages of (X/Y)-100, where X is the change in mean tension (g) induced by PGF2α and Y is the initial reference response (g). Data are representative of 4–6 experiments per treated group. All results are expressed as means ± SEM and were compared by Independent t-tests. Statistical tests were performed with GraphPad Prism 4.3 software and p < 0.05 was considered statistically significant.

[2] = solubility in water (observation on handling); format: physicochemical; settings: qualitative observation on the purified, freeze-dried peptide
Experimental: Linear sequences of L- and D-PDC31 linked to 2-chlorotrityl resin (L- and D-1) were obtained by solid phase peptide synthesis using standard Fmoc/t-Bu protocols. Peptide resin L-1 was treated with the appropriate aldehyde 2 (Scheme 1). The imine resin was washed to remove excess aldehyde, and reductive amination was performed using sodium cyanoborohydride to provide secondary amine resin 3. Removal of the protecting groups and resin cleavage were achieved using a cocktail of 95:2.5:2.5 TFA:TES:H2O to provide N-alkyl- and N-PEG-grafted peptides 4, which were purified by RP-HPLC (Table 1). […] An inseparable mixture of mono- and bis-N-alkyl peptides was isolated by HPLC from reaction with aldehyde of shorter chain length.
Increased lipophilic character may promote peptide aggregation and decrease solubility in aqueous solvent. […] For biological assays, solubility issues were surmounted by forming salts and using small amounts of DMSO. The influence of their amphiphilic character during purification by RP-HPLC and double alkylation from the reductive amination sequence may account for the lower isolated yields of peptides 4, 7 and 8.

[3] = serum stability study (mouse serum/plasma, MS/MS); format: in vitro ADME; settings: mouse plasma (method: serum), 37 °C, LC-MS/MS, internal standard L-4f
Experimental: Peptide L-4d was further examined for stability in serum and compared to L-PDC31. The two peptides were incubated at 37 °C in mouse plasma. Aliquots were removed at different time intervals and analyzed by mass spectrometry (MS/MS) to detect remaining amount of peptide (Figure 3).
Serum was […] and kept on ice throughout the procedure. Two blanks were prepared by adding 5 µL of DMSO to 95 µL of serum. These were incubated for 2 h and submitted to the same treatment as the other samples. Two series of vials containing 95 µL of serum were prepared and spiked with either 5 µL of L-PDC31 [0.4 mM] or L-4d [0.4 mM], and incubated for 120, 60, 30, 15, 10 and 5 min, respectively, after which 100 µL of 4% phosphoric acid was added. Two vials were also spiked with 5 µL L-PDC31 and L-4d, respectively, and immediately treated with phosphoric acid (time = 0 min). The vials were incubated for 5 min at 95 °C, cooled on ice for 2 min, treated with 600 µL of cold MeCN containing L-4f (0.02 mM) as internal standard, and incubated at –20 °C overnight. After the incubation period, the vials were vortexed for 2 min and centrifuged at 4 °C for 15 min. The supernatant was transferred into LC-MS vials and analyzed.
Results were expressed as: (AN/IS/AN0/IS0)∗100
AN and IS refer, respectively, to the analyte and internal standard MS signals. Both values are compared with initial injection at which time AN0 and IS0 were not incubated.

[4] = tested on: prostaglandin F2α receptor (FP); settings: cited from earlier work
Experimental: The development of PDC31 originated from a library of sequences based on the second extracellular loop of FP. Short lead peptides were analyzed initially using in vitro and ex vivo analyses. […] Moreover, addition of the dodecyl chain enhanced plasma stability.

Molecule | effect on PGF2α-induced contractions (mean tension) of myometrial tissue [1] | solubility in water [2] | also measured
CCCCCCCCCCCCN[C@@H](C(=O)N[C@H](CC(C)C)C(=O)NCC(=O)N[C@H](Cc1c[nH]cn1)C(=O)N[C@H](CCCNC(N)=O)C(=O)N[C@H](CC(=O)O)C(=O)N[C@H](Cc1ccc(O)cc1)C(=O)N[C@H](CCCCN)C(=O)O)[C@H](C)CC [D-4d, N-Dodecyl-D-Ile-D-Leu-Gly-D-His-D-Cit-D-Asp-D-Tyr- D-Lys-OH] (HELM PEPTIDE1{[CCCCCCCCCCCCN[C@@H](C(=O)[*:2])[C@H](C)CC].[dL].G.[dH].[NC(=O)NCCC[C@@H](N[*:1])C(=O)[*:2]].[dD].[dY].[dK]}$$$$V2.0) | trends suggesting protective effects; also recorded: lower potency than the unmodified D-peptide, PDC-31 |  | 
CCCCCCN[C@H](C(=O)N[C@@H](CC(C)C)C(=O)NCC(=O)N[C@@H](Cc1c[nH]cn1)C(=O)N[C@@H](CCCNC(N)=O)C(=O)N[C@@H](CC(=O)O)C(=O)N[C@@H](Cc1ccc(O)cc1)C(=O)N[C@@H](CCCCN)C(=O)O)[C@@H](C)CC [L-4b, N-Hexanyl-Ile-Leu-Gly-His-Cit-Asp-Tyr-Lys-OH] (HELM PEPTIDE1{[CCCCCCN[C@H](C(=O)[*:2])[C@@H](C)CC].L.G.H.[Cit].D.Y.K}$$$$V2.0) | trends suggesting protective effects; also recorded: not statistically significant |  | 
CCCCCCCCCCCCCN[C@H](C(=O)N[C@@H](CC(C)C)C(=O)NCC(=O)N[C@@H](Cc1c[nH]cn1)C(=O)N[C@@H](CCCNC(N)=O)C(=O)N[C@@H](CC(=O)O)C(=O)N[C@@H](Cc1ccc(O)cc1)C(=O)N[C@@H](CCCCN)C(=O)O)[C@@H](C)CC [L-4e, N-Tridecanyl-Ile-Leu-Gly-His-Cit-Asp-Tyr-Lys-OH] (HELM PEPTIDE1{[CCCCCCCCCCCCCN[C@H](C(=O)[*:2])[C@@H](C)CC].L.G.H.[Cit].D.Y.K}$$$$V2.0) |  | Except for peptide 4e, bearing the 18-carbon alkyl chain, peptides 4 were all soluble in water | 
CC[C@H](C)[C@H](NCCOCCOCCOCCOC)C(=O)N[C@@H](CC(C)C)C(=O)NCC(=O)N[C@@H](Cc1c[nH]cn1)C(=O)N[C@@H](CCCNC(N)=O)C(=O)N[C@@H](CC(=O)O)C(=O)N[C@@H](Cc1ccc(O)cc1)C(=O)N[C@@H](CCCCN)C(=O)O [L-4g, N-2,7,8,11-tetraoxytetradecane-Ile-Leu-Gly-His-Cit-Asp-Tyr-Lys-OH] (HELM PEPTIDE1{[CC[C@H](C)[C@H](NCCOCCOCCOCCOC)C(=O)[*:2]].L.G.H.[Cit].D.Y.K}$$$$V2.0) | Neither PEGylated peptide L-4g nor N-farnesyl peptide L-7 exhibited activity |  | 
CC[C@H](C)[C@H](NCC=C(C)CCC=C(C)CCC=C(C)C)C(=O)N[C@@H](CC(C)C)C(=O)NCC(=O)N[C@@H](Cc1c[nH]cn1)C(=O)N[C@@H](CCCNC(N)=O)C(=O)N[C@@H](CC(=O)O)C(=O)N[C@@H](Cc1ccc(O)cc1)C(=O)N[C@@H](CCCCN)C(=O)O [L-7, N-Farnesyl-Ile-Leu-Gly-His-Cit-Asp-Tyr-Lys-OH] (HELM PEPTIDE1{[CC[C@H](C)[C@H](NCC=C(C)CCC=C(C)CCC=C(C)C)C(=O)[*:2]].L.G.H.[Cit].D.Y.K}$$$$V2.0) | Neither PEGylated peptide L-4g nor N-farnesyl peptide L-7 exhibited activity | soluble in water | 
CCCCCCCCCCCC(=O)N[C@H](C(=O)N[C@@H](CC(C)C)C(=O)NCC(=O)N[C@@H](Cc1c[nH]cn1)C(=O)N[C@@H](CCCNC(N)=O)C(=O)N[C@@H](CC(=O)O)C(=O)N[C@@H](Cc1ccc(O)cc1)C(=O)N[C@@H](CCCCN)C(=O)O)[C@@H](C)CC [L-8 HCl salt] (HELM PEPTIDE1{[CCCCCCCCCCCC(=O)[*:2]].I.L.G.H.[Cit].D.Y.K}$$$$V2.0) |  |  | solubility in water ([2]; listed as 8 hydrochloride salt): dissolved readily in water
CCCCCCCCCCCC(=O)N[C@H](C(=O)N[C@@H](CC(C)C)C(=O)NCC(=O)N[C@@H](Cc1c[nH]cn1)C(=O)N[C@@H](CCCNC(N)=O)C(=O)N[C@@H](CC(=O)O)C(=O)N[C@@H](Cc1ccc(O)cc1)C(=O)N[C@@H](CCCCN)C(=O)O)[C@@H](C)CC [L-8, N-Dodecanoyl-Ile-Leu-Gly-His-Cit-Asp-Tyr-Lys-OH] (HELM PEPTIDE1{[CCCCCCCCCCCC(=O)[*:2]].I.L.G.H.[Cit].D.Y.K}$$$$V2.0) | inactive | poor solubility; also recorded: aqueous solubility issues | 
CC[C@H](C)[C@H](N)C(=O)N[C@@H](CC(C)C)C(=O)NCC(=O)N[C@@H](Cc1c[nH]cn1)C(=O)N[C@@H](CCCNC(N)=O)C(=O)N[C@@H](CC(=O)O)C(=O)N[C@@H](Cc1ccc(O)cc1)C(=O)N[C@@H](CCCCN)C(=O)O [L-PDC31, H-Ile-Leu-Gly-His-Cit-Asp-Tyr-Lys-OH] (HELM PEPTIDE1{I.L.G.H.[Cit].D.Y.K}$$$$V2.0) |  |  | time to complete degradation in mouse plasma ([3]; 5 µL 0.4 mM peptide in 95 µL serum): ≤ 5 min; stability in mouse plasma, in words ([3]; incubation up to 2 hours): rapidly degraded in plasma
H-ile-leu-Gly-his-arg-asp-tyr-lys-OH [PDC113] |  |  | activity as FP inhibitor, in words [4]: active FP inhibitor
N-Octadecanyl-Ile-Leu-Gly-His-Cit-Asp-Tyr-Lys-OH [L-4f] | trends suggesting protective effects; also recorded: not statistically significant | required a small amount of DMSO to completely dissolve; also recorded: aqueous solubility issues; also recorded: poorly soluble in water | 
